Here are results for 31 compounds from US8716309B2, “Pharmaceutical composition comprising pyridone derivatives” (priority 2011, dated 2014).

The target of one assay is human α7 nAChR (Homo sapiens, UniProt P36544). As to the kind of experiment: cell-based. To be noted: EC50 of human α7nAChR(nM), HEK293T/17 cells transfected with human α7 nAChR; PNU-120596 added; relative to epibatidine 1 μM positive control.
Chain of human α7 nAChR (P36544 23-502): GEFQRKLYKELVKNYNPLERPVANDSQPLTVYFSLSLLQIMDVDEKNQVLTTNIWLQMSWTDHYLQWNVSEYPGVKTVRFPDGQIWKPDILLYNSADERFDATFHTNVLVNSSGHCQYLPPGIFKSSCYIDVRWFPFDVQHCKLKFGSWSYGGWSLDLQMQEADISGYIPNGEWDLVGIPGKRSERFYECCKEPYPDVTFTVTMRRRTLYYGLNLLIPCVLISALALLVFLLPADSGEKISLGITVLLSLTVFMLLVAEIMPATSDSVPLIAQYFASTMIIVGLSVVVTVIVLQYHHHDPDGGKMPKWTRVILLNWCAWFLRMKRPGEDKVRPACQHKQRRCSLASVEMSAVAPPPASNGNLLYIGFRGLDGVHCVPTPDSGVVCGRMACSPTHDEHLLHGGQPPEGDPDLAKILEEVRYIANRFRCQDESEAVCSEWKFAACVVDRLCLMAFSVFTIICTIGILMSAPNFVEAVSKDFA
On to `COc1ccc(-n2cc(C(=O)NC3CN4CCC3CC4)ccc2=O)c(SC)c1` (centres unmarked) [Example 84, N-(1-azabicyclo[2.2.2]octan-3-yl)-1-[4-methoxy-2-(methylthio)phenyl]-6-oxo-3-pyridinecarboxamide], for which the EC50 (in general, the midpoint of the concentration-response curve) was less than 100 nM.

`CSc1cc(C)ccc1-n1cc(C(=O)NC2CN3CCC2CC3)ccc1=O` (centres unmarked) [Example 89, N-(1-azabicyclo[2.2.2]octan-3-yl)-1-[4-methyl-2-(methylthio)phenyl]-6-oxo-3-pyridinecarboxamide] displayed an EC50 of less than 100 nM.

Regarding `O=C(NC1CN2CCC1CC2)c1ccc(=O)n(-c2ccccc2-c2nccs2)c1` (centres unmarked) [Example 104, N-(1-azabicyclo[2.2.2]octan-3-yl)-6-oxo-1-[2-(2-thiazolyl)phenyl]-3-pyridinecarboxamide], the EC50 was 100 to 500 nM.

As for `Cc1ccc(-c2ccc(-n3cc(C(=O)NC4CN5CCC4CC5)ccc3=O)c(Cl)c2)s1` (centres unmarked) [Example 109, N-(1-azabicyclo[2.2.2]octan-3-yl)-1-[2-chloro-4-(5-methyl-2-thiophenyl)phenyl]-6-oxo-3-pyridinecarboxamide], the EC50 lay within 100 to 500 nM.

Turning to `CC(C)(C)c1ccc(-n2cc(C(=O)NC3CN4CCC3CC4)ccc2=O)c(Cl)c1` (centres unmarked) [Example 36, N-(1-azabicyclo[2.2.2]octan-3-yl)-1-(4-tert-butyl-2-chlorophenyl)-6-oxo-3-pyridinecarboxamide], the EC50 fell in the range of 100 to 500 nM.

Compound `Cc1ccc(-n2cc(C(=O)NC3CN4CCC3CC4)ccc2=O)c(Cl)c1` (centres unmarked) [Example 29, N-(1-azabicyclo[2.2.2]octan-3-yl)-1-(2-chloro-4-methylphenyl)-6-oxo-3-pyridinecarboxamide] yielded an EC50 greater than 1000 nM.

In the case of `CC(C)Sc1cc(Cl)ccc1-n1cc(C(=O)NC2CN3CCC2CC3)ccc1=O` (centres unmarked) [Example 93, N-(1-azabicyclo[2.2.2]octan-3-yl)-1-[4-chloro-2-(propan-2-ylthio)phenyl]-6-oxo-3-pyridinecarboxamide], the EC50 fell in the range of 100 to 500 nM.

For `O=C(NC1CN2CCC1CC2)c1ccc(=O)n(-c2ccccc2-c2nc3ccccc3s2)c1` (centres unmarked) [Example 107, N-(1-azabicyclo[2.2.2]octan-3-yl)-1-[2-(1,3-benzothiazole-2-yl)phenyl]-6-oxo-3-pyridinecarboxamide], the EC50 was less than 100 nM.

Take `Cc1ccccc1-n1cc(C(=O)NC2CN3CCC2CC3)ccc1=O` (centres unmarked) [Example 11, N-(1-azabicyclo[2.2.2]octan-3-yl)-1-(2-methylphenyl)-6-oxo-3-pyridinecarboxamide]: the EC50 was greater than 1000 nM.

Consider `O=C(NC1CN2CCC1CC2)c1ccc(=O)n(-c2ccccc2)c1` (centres unmarked) [Example 1, N-(1-azoniabicyclo[2.2.2]octan-3-yl)-6-oxo-1-phenyl-3-pyridinecarboxamide], for which the EC50 is greater than 1000 nM.

On to `COc1ccc(-n2cc(C(=O)NC3CN4CCC3CC4)ccc2=O)c(OC)c1` (centres unmarked) [Example 49, N-(1-azabicyclo[2.2.2]octan-3-yl)-1-(2,4-dimethoxyphenyl)-6-oxo-3-pyridinecarboxamide], for which the EC50 is 100 to 500 nM.

`CSc1cc(Cl)ccc1-n1cc(C(=O)N[C@@H]2CN3CCC2CC3)ccc1=O` [Example 88, N-[(3S)-1-azabicyclo[2.2.2]octan-3-yl]-1-[4-chloro-2-(methylthio)phenyl]-6-oxo-3-pyridinecarboxamide]: the EC50 lay in the range of 100 to 500 nM.

`Cc1ccc(-c2ccccc2-n2cc(C(=O)NC3CN4CCC3CC4)ccc2=O)s1` (centres unmarked) [Example 111, N-(1-azabicyclo[2.2.2]octan-3-yl)-1-[2-(5-methyl-2-thiophenyl)phenyl]-6-oxo-3-pyridinecarboxamide] had a concentration giving a half-maximal response (EC50) of 100 to 500 nM.

In the case of `O=C(NC1CN2CCC1CC2)c1ccc(=O)n(-c2cccc3ccccc23)c1` (centres unmarked) [Example 102, N-(1-azabicyclo[2.2.2]octan-3-yl)-1-(1-naphthalenyl)-6-oxo-3-pyridinecarboxamide], the EC50 lay in the range of 100 to 500 nM.

Take `O=C(NC1CN2CCC1CC2)c1ccc(=O)n(-c2cccc(Cl)c2Cl)c1` (centres unmarked) [Example 46, N-(1-azabicyclo[2.2.2]octan-3-yl)-1-(2,3-dichlorophenyl)-6-oxo-3-pyridinecarboxamide]: the EC50 is 100 to 500 nM.

Compound `CCCc1ccc(-n2cc(C(=O)NC3CN4CCC3CC4)ccc2=O)cc1` (centres unmarked) [Example 15, N-(1-azabicyclo[2.2.2]octan-3-yl)-6-oxo-1-(4-propylphenyl)-3-pyridinecarboxamide] had an EC50 of 500 to 1000 nM.

Take `O=C(NC1CN2CCC1CC2)c1ccc(=O)n(-c2ccc(Cl)cc2F)c1` (centres unmarked) [Example 38, N-(1-azabicyclo[2.2.2]octan-3-yl)-1-(4-chloro-2-fluorophenyl)-6-oxo-3-pyridinecarboxamide]: the EC50 fell in the range of 100 to 500 nM.

Take `O=C(N[C@@H]1CN2CCC1CC2)c1ccc(=O)n(-c2ccc(Cl)cc2)c1` [Example 6, N-[(3S)-1-azabicyclo[2.2.2]octan-3-yl]-1-(4-chlorophenyl)-6-oxopyridine-3-carboxamide]: the EC50 is greater than 1000 nM.

`Cc1ccc(-c2ccc(-n3cc(C(=O)NC4CN5CCC4CC5)ccc3=O)cc2)s1` (centres unmarked) [Example 108, N-(1-azabicyclo[2.2.2]octan-3-yl)-1-[4-(5-methyl-2-thiophenyl)phenyl]-6-oxo-3-pyridinecarboxamide] returned an EC50 of 100 to 500 nM.

Compound `Cc1ccc(-n2cc(C(=O)NC3CN4CCC3CC4)ccc2=O)cc1` (centres unmarked) [Example 12, N-(1-azabicyclo[2.2.2]octan-3-yl)-1-(4-methylphenyl)-6-oxo-3-pyridinecarboxamide] registered an EC50 of 500 to 1000 nM.

`O=C(NC1CN2CCC1CC2)c1ccc(=O)n(-c2ccc(OC(F)(F)F)cc2Cl)c1` (centres unmarked) [Example 57, N-(1-azabicyclo[2.2.2]octan-3-yl)-1-[2-chloro-4-(trifluoromethoxy)phenyl]-6-oxo-3-pyridinecarboxamide] registered an EC50 of 100 to 500 nM.

Take `O=C(NC1CN2CCC1CC2)c1ccc(=O)n(-c2cc(Cl)c(Cl)cc2Cl)c1` (centres unmarked) [Example 60, N-(1-azabicyclo[2.2.2]octan-3-yl)-1-(2,4,5-trichlorophenyl)-6-oxo-3-pyridinecarboxamide]: the EC50 lay within 500 to 1000 nM.

With `Cc1ccc(Oc2ccc(-n3cc(C(=O)NC4CN5CCC4CC5)ccc3=O)cc2)cc1` (centres unmarked) [Example 72, N-(1-azabicyclo[2.2.2]octan-3-yl)-1-[4-(4-methylphenoxy)phenyl]-6-oxo-3-pyridinecarboxamide], the EC50 lay in the range of 100 to 500 nM.

In turn, `CCSc1cc(OC)ccc1-n1cc(C(=O)NC2CN3CCC2CC3)ccc1=O` (centres unmarked) [Example 85, N-(1-azabicyclo[2.2.2]octan-3-yl)-1-[2-(ethylthio)-4-methoxyphenyl]-6-oxo-3-pyridinecarboxamide] gave an EC50 of less than 100 nM.

In turn, `O=C(NC1CN2CCC1CC2)c1ccc(=O)n(-c2ccc(-c3ccccc3)cc2Cl)c1` (centres unmarked) [Example 70, N-(1-azabicyclo[2.2.2]octan-3-yl)-1-(2-chloro-4-phenylphenyl)-6-oxo-3-pyridinecarboxamide] displayed a 50% effective concentration (EC50) of 100 to 500 nM.

`Cc1cnc(-c2ccccc2-n2cc(C(=O)NC3CN4CCC3CC4)ccc2=O)s1` (centres unmarked) [Example 106, N-(1-azabicyclo[2.2.2]octan-3-yl)-1-[2-(5-methyl-2-thiazolyl)phenyl]-6-oxo-3-pyridinecarboxamide] yielded a concentration for a half-maximal effect (EC50) of 500 to 1000 nM.

Compound `CSc1cc(C(C)C)ccc1-n1cc(C(=O)NC2CN3CCC2CC3)ccc1=O` (centres unmarked) [Example 96, N-(1-azabicyclo[2.2.2]octan-3-yl)-1-[2-(methylthio)-4-propan-2-ylphenyl]-6-oxo-3-pyridinecarboxamide] returned an EC50 of less than 100 nM.

`O=C(NC1CN2CCC1CC2)c1ccc(=O)n(-c2ccccc2OCc2ccccc2)c1` (centres unmarked) [Example 63, N-(1-azabicyclo[2.2.2]octan-3-yl)-6-oxo-1-(2-phenylmethoxyphenyl)-3-pyridinecarboxamide] returned an EC50 greater than 1000 nM.

Take `CCSc1cc(Cl)ccc1-n1cc(C(=O)NC2CN3CCC2CC3)ccc1=O` (centres unmarked) [Example 97, N-(1-azabicyclo[2.2.2]octan-3-yl)-1-[4-chloro-2-(ethylthio)phenyl]-6-oxo-3-pyridinecarboxamide]: the EC50 was less than 100 nM.

In the case of `CCc1ccc(-n2cc(C(=O)NC3CN4CCC3CC4)ccc2=O)c(SC)c1` (centres unmarked) [Example 98, N-(1-azabicyclo[2.2.2]octan-3-yl)-1-[4-ethyl-2-(methylthio)phenyl]-6-oxo-3-pyridinecarboxamide], the EC50 is less than 100 nM.

The compound `CCc1ccc(-n2cc(C(=O)NC3CN4CCC3CC4)ccc2=O)cc1` (centres unmarked) [Example 14, N-(1-azabicyclo[2.2.2]octan-3-yl)-1-(4-ethylphenyl)-6-oxo-3-pyridinecarboxamide] yielded an EC50 of 500 to 1000 nM.

The subject of another assay is Male ICR mice. As to the kind of experiment: Novel Object Recognition Test (NORT), MK-801 induced amnesia. Type of assay: in vivo. To be noted: Mus musculus; po; dose at which the relative RI is given; doses 0.03˜3 mg/kg; read-out: NORT MED. An excerpt: A NORT, which was first introduced by Ennaceur and Delacour, is a cognitive memory test for measuring whether rats are able to remember objects with which they have had previous experience based on the nature of rats, i.e., preference to explore novel objects [Ennaceur A and Delacour J (1988) A new one-trial test for neurobiological studies of memory in rats. 1; Behavioral data. Behavioral Brain Res. 31; 47-59]. This NOR test is a popular experimental method for measuring changes in memory of objects in rodents administered with either an amnesia-inducing drug or other general drugs, by which memory recovery efficacy of a test drug in the rodents administered with the amnesia-inducing drug is explored. In the present example, the test was performed in accord with the description of Bevins and Besheer [Bevins, R. A. & Besheer, J. Object recognition in rats and mice; a one-trial non-matching-to-sample learning task to study ‘recognition memory’. Nat. Protoc. 2006; 1(3); 1306-11. (2006)]. Male ICR mice (available from Orient Bio Inc., Korea) weighing from about 20 g to about 32 g were orally administered a test compound dissolved in a 30% PEG at doses of 0.03˜3 mg/kg and 10 ml/kg body weight. 30 minutes after the administration, MK-801 (available from Sigma) dissolved in saline was subcutaneously administered at doses of 0.1 mg/kg and 10 ml/kg body weight to induce amnesia. About 30 minutes after the administration of MK-801, the mice were allowed to explore a rectangular stainless steel pillar or a circular plastic pillar which was previously placed in a box for about 5 minutes. About 24 hours after the exploration, one of the two objects previously presented was replaced with a new one (i.e., to include one rectangular stainless steel pillar and one circular plastic pillar), the times they took to explore were measured for about 5 minutes. A recognition index (RI) was defined as: [(Exploration time for novel object in test compound group/Exploration time for all objects in test compound group)/(Exploration time for novel object in MK801 group/Exploration time for all objects in MK801 group)×100].
Table 2 below presents relative RIs of the compounds at a minimal dose […].
For `COc1ccc(-n2cc(C(=O)NC3CN4CCC3CC4)ccc2=O)c(SC)c1` (centres unmarked) [Example 84, N-(1-azabicyclo[2.2.2]octan-3-yl)-1-[4-methoxy-2-(methylthio)phenyl]-6-oxo-3-pyridinecarboxamide], the minimal effective dose amounted to 0.3 mg/kg.

Consider `CSc1cc(C)ccc1-n1cc(C(=O)NC2CN3CCC2CC3)ccc1=O` (centres unmarked) [Example 89, N-(1-azabicyclo[2.2.2]octan-3-yl)-1-[4-methyl-2-(methylthio)phenyl]-6-oxo-3-pyridinecarboxamide], for which the minimal effective dose was 0.03 mg/kg.

Turning to `O=C(NC1CN2CCC1CC2)c1ccc(=O)n(-c2ccccc2-c2nccs2)c1` (centres unmarked) [Example 104, N-(1-azabicyclo[2.2.2]octan-3-yl)-6-oxo-1-[2-(2-thiazolyl)phenyl]-3-pyridinecarboxamide], the minimal effective dose worked out at 3 mg/kg.

`Cc1ccc(-c2ccc(-n3cc(C(=O)NC4CN5CCC4CC5)ccc3=O)c(Cl)c2)s1` (centres unmarked) [Example 109, N-(1-azabicyclo[2.2.2]octan-3-yl)-1-[2-chloro-4-(5-methyl-2-thiophenyl)phenyl]-6-oxo-3-pyridinecarboxamide]: the minimal effective dose worked out at 3 mg/kg.
